Tested on: AAV8-SEAP
Assay: Serum SEAP expression after AAV8-SEAP injections
Type: in vivo, C57BL/6 female mice
Details: after the second boost at d140 (FIG. 2A) or d147 (FIG. 2B); AAV8-SEAP 1×10^10 VG
Description: Three groups of C57BL/6 female mice (6 mice each) were injected (r.o.) on days 0 and 56 with 1×10^10 VG of AAV8-SEAP without any nanoparticles (one group) or with ImmTOR™ at 100 μg of rapamycin (synthetic nanocarriers comprising rapamycin, such as those produced in Example 1; two groups). Of the […] two groups, one group was left untreated and one was additionally treated with systemic dexamethasone (i.p., 200 μg in 100 μL per injection) on injection days 0 and 56.
At time indicated in FIGS. 1A and 1B (days 14, 35, 49, 63 and 71 or days 13, 19, 33, 48, 62 and 69), mice were bled, serum separated from whole blood, and stored at −20±5° C. until analysis. SEAP levels in serum were measured using an assay kit from ThermoFisher Scientific (Waltham, Mass., USA). Briefly, sera samples and positive controls were diluted in dilution buffer, incubated at 65° C. for 30 min, then cooled to room temperature, and plated into a 96-well format. Then, assay buffer (5 min) and substrate (20 min) were added and the plates were read on a luminometer (477 nm).
This has warranted a series of further studies in which four groups of C57BL/6 female mice (6 mice each) were injected (r.o.) on days 0, 56 and 140 or 147 with 1×10^10 VG of AAV8-SEAP without any nanoparticles (two groups) or with ImmTOR™ at 100 μg of rapamycin (synthetic nanocarriers comprising rapamycin; two groups). […]

C[C@@H]1C[C@H]2[C@@H]3CCC4=CC(=O)C=C[C@]4(C)[C@@]3(F)[C@@H](O)C[C@]2(C)[C@@]1(O)C(=O)CO [dexamethasone, 9α-fluoro-11β,17α,21-trihydroxy-16α-methylpregna-1,4-diene-3,20-dione]
benefit in SEAP expression vs. untreated: 10-80%
